# In patent US20150368715A1, “DIAGNOSTIC AND TREATMENT OF CHRONIC HEART FAILURE” (Institut National de la Sante et de la Recherche Medicale …, priority 2010, published 2015):
# Experiments:
# Type in all cases: cell-based, rat
# [1] = test system: H9c2 cardiac myoblasts; test: Transmission electron microscopy of palmitate treated cells; settings: H9c2 (control) cardiac myoblasts treated with palmitate; not shown
# [2] = test system: H9c2 cardiac myoblasts; test: Oxygen flow measurement (cell respiration); settings: ApoO+ H9c2 cardiac myoblasts; CCCP 4 to 16 μM cumulative doses; FIG. 8A
# [3] = test system: caspase 3; test: Caspase 3 activity monitoring in cardiac myoblasts; settings: ApoO+ cells incubated with palmitate, with or without added agent, FIG. 5A, 5L, 6E, 6F
# Procedure: Palmitate preparation and caspase 3 activity measurement were performed as previously described (Hickson-Bick, Buja et al. 2000; Hirota, Otabe et al. 2006).
# [4] = test system: long fatty acyl CoA synthetase; test: Palmitoyl-coA synthase activity in H9c2 cardiac myoblasts; settings: control and ApoO+ H9c2 cardiac myoblasts; FIG. 7H
# [5] = test system: AMPK; test: Western blot analysis of AMPK phosphorylation; settings: ApoO+ cardiac myoblasts, with or without palmitate; FIG. 6G
smiles,measurement,setting,value
CCCCCCCCCCCCCCCC(=O)O [palmitate],mitochondrial alteration by transmission electron microscopy,[1],no significant effect
"N#CC(C#N)=NNc1cccc(Cl)c1 [CCCP, Carbonyl cyanide m-chlorophenyl hydrazone]",oxygen consumption,[2],further increased
CCCC[C@@H](C)[C@@H](OC(=O)C[C@@H](CC(=O)O)C(=O)O)[C@H](C[C@@H](C)C[C@H](O)CCCC[C@@H](O)C[C@H](O)[C@H](C)N)OC(=O)C[C@@H](CC(=O)O)C(=O)O [Fumonisin B1],caspase 3 activity,[3],lowered caspase 3 activity
same,caspase 3 activity,[3]; listed as fumonisine B,partially attenuated
CCC/C=C/C/C=C/C=C/C=N/NN=O [triacsin C],palmitoyl-coA activity,[4],inhibited
"NC(=O)c1ncn([C@@H]2O[C@H](CO)[C@@H](O)[C@H]2O)c1N [AICAR, 5-Aminoimidazole-4-carboxyamide ribonucleoside]",caspase 3 activity,[3],significantly reduced
same,AMPK phosphorylation,[5],increased AMPK phosphorylation
O=c1cc(N2CCOCC2)oc2c(-c3ccccc3)cccc12 [LY294002],caspase 3 activity,[3],no significant effect
